Source: patent publication US10106577B2, “Agonists of neurotrophin receptors and their use as medicaments” (BIONURE FARMA, S.L., priority 2010, dated 2018)

What was measured:
[1] = system: NGF-receptors (TrkA and p75) on PC12 cells; test: Cytometry binding assay, competition NGF/G79-FITC in PC12; conditions: G79-FITC 100 ng/ml; NGF 0-10-20-50-100 ng/ml
Experimental: In order to assess the binding of G79 to the TrkA (PC12 cells) and TrkB receptors (SH-SY5Y), we performed competitive binding assays by flow cytometry. In order to assess the binding competition between p75 and TrkA, PC12 cells expressing both TrkA and p75 receptors were cultivated in normal growth medium. After detaching cells by trypsin solution, 200,000 cells/well were added to tubes for the following incubations. One tube contains control untreated cells. In the other tubes, cells were pre-incubated for 45 minutes with different concentrations of NGF (0-10-20-50-100 ng/ml), that can directly bind both TrkA and p75 receptors, blocking the possible binding of G79 if it competes for the same receptors. Then, without washing the cells, G79 conjugated with FITC fluorescence (100 ng/ml) was added and so incubated the cells for 1 hour. Samples were read in a cytometer (FCAScan).
To detect the binding separately on both receptors, a prior incubation of cells (before NGF incubation) with blocking antibodies was made. The cells were preincubated for 1 hour with blocking antibody anti-p75 (1:100; Chemicon Int.), to detect the binding on TrkA, or blocking antibody anti-TrkA (1:200; AbCam) to detect the binding on p75. […] All the results are expressed as mean channel fluorescence (MCF), which is a measure of the cell surface fluorescence produced by G79-FITC binding.

mice affected by EAE = test: Experimental autoimmune encephalomyelitis (EAE) model of MS; format: in vivo, C57BL/6 mice
Experimental: The effect of G79 was tested in the animal model of MS, the experimental autoimmune encephalomyelitis (EAE), by performing a preventive trial (in which the therapy starts at the time of the induction of the disease) and a curative trial (in which the therapy starts when the animals are already suffering from the disease). Female C57BL/6 mice from Harlan (8-12 weeks old) were immunized subcutaneously in both hind pads with 300 μg of myelin oligodendrocyte glycoprotein (MOG) peptide 35-55 (Spikem, Firenze) emulsified with 50 μg of Mycobacterium tuberculosis (H37Ra strain; Difco, Detroit, Mich.) in incomplete Freund's adjuvant (IFA) as previously described in Palacios et al., 2007. The mice were injected intraperitoneally with Pertussis toxin (Sigma) (500 ng) at the time of immunization and 2 days later. The animals were weighted and inspected for clinical signs of disease on a daily basis by a blinded observer. The severity of the disease EAE was assessed for 30 days according to the following scale: 0=normal; 0.5=mild limp tail; 1=limp tail; 2=mild paraparesis of the hind limbs, unsteady gait; 3=moderate paraparesis, voluntary movements still possible; 4=paraplegia or tetraparesis; 5=moribund state. At the end of the study, the mice were anesthetized and perfused intracardially with 4% of paraformaldehyde in 0.1 M phosphate buffer (pH 7.6). The brains, spinal cords and spleens were dissected and either fixed or frozen until use. Also serum was obtained from all the animals included in the study. This procedure was approved by the University of Barcelona Committee on Animal Care.
Two different experiments were performed to assess both the preventive effect and curative effect of G79, compared to other drugs targeting neurotrophin pathway (Gambogic amide and Xaliproden) or one of the first line therapy for the treatment of MS, i.e., Glatiramer acetate.
For the preventive trial, 10 animals were treated with intraperitoneal injection of G79 at the concentration of 40 mg/kg, 10 animals were treated with intraperitoneal injection of G79 at the concentration of 100 mg/kg, 10 animals were treated with intraperitoneal injection of Gambogic amide at the concentration of 2 mg/kg, 10 animals were treated with oral administration of Xaliproden at the concentration of 10 mg/kg. As both Gambogic amide and Xaliproden were diluted with different percentage of DMSO, 5 animals were treated with intraperitoneal injection of placebo (physiologic solution plus 1% DMSO) and other 5 animals were treated with placebo oral (physiologic solution plus 2.5% DMSO), respectively. The treatments were performed daily, starting after the immunization day.
For the curative trial, to reduce the discrepancy between the oral administration and intraperitoneal injections, as stress can deeply affect the development of the clinical scores in animals, all the treatments were performed by intraperitoneal injections. For this study, 8 animals were treated with G79 at the concentration of 40 mg/kg, 8 animals were treated with G79 at the concentration of 100 mg/kg, 8 animals were treated with Gambogic amide at the concentration of 2 mg/kg, 8 animals were treated with Xaliproden at the concentration of 10 mg/kg, 8 animals were treated with Glatiramer acetate at the concentration of 5 mg/kg, 8 animals were treated with placebo (physiologic solution plus 2.5% DMSO). The treatments were performed daily starting after the increase of the clinical score at score 2 (after the second day at this score).

[2] = preventive trial, 100 mg/Kg i.p.

CC(C)CN(CC(=O)N(CCCN1CCCC1=O)CC(N)=O)C(=O)CNCCc1ccccc1F [Compound G79, [N-(2-(2′-Fluorophenyl)ethyl)glycyl]-[N-(2-methylpropyl)glycyl]-N-[3-(2′-oxopyrrolidinyl)propyl]glycinamide]
competition with NGF for binding (MCF of G79-FITC) [1]: competes for the binding on the same NGF-receptors | therapeutic effect in ameliorating the clinical score (in words) (mice affected by EAE; curative trial, 100 mg/Kg i.p.): best therapeutic effect in ameliorating the clinical score | clinical score (mice affected by EAE; curative trial, 100 mg/Kg i.p., 16th day): 2.8±1.2 | clinical score (mice affected by EAE; curative trial, 100 mg/Kg i.p., day 19th): 1.75±1 | clinical score (mice affected by EAE; curative trial, 100 mg/Kg i.p., day not printed (between day 16th and 23rd)): 1.6±0.8 | delaying the disease, comparison of the doses (mice affected by EAE; [2]): more effective in delaying the disease | final clinical score at day 30th (mice affected by EAE; [2]): lower compared to placebo treated animals | onset of the disease (clinical score) (mice affected by EAE; preventive trial, G79 40 and 100 mg/kg i.p. daily): delay in the presence of the disease, although not significant
